Test results: patent US20130052172A1, “METHODS FOR DIAGNOSING AND TREATING CARDIAC DEFECTS” (priority 2011, published 2013)
“Also recorded” adds a separate entry of the source. Positions of bridges follow the written chain, without caps; N, C: chain ends. Non-standard residues stand in square brackets, D forms with d. Residues, ends and D or L forms follow the SMILES beside them. *: point of attachment. Ileψ(thiazoline)Cys = CC[C@H](C)[C@H](N)C1=N[C@H](C(=O)*)CS1; dOrn = NCCC[C@@H](N)C(=O)O

What was measured:
[1] = test system: rats; experiment: Myocardial ischemia/reperfusion by the protocol of example 3 (model not given); format: in vivo, rat; conditions: Dahl S rats, single antibiotic in drinking water (60 or 120 mg/kg/day)
Excerpt: In the following example, methods for assaying myocardial infarction in vitro and in vivo in rats as determined by ischemia/reperfusion studies are described.
(§1) An anesthetized rat model was used for in vivo ischemia/reperfusion studies using the general surgical protocol and determination of infarct size (IS) described in “K(ATP) opener-induced delayed cardioprotection: involvement of sarcolemmal and mitochondrial K(ATP) channels, free radicals and MEK½” (Gross, E. et al., J. Mol. Cell. Cardiol. 35, 985-992, 2003), the entirety of which is incorporated herein by reference. Briefly, following anesthesia, a tracheotomy for artificial ventilation was performed, with the left common carotid artery cannulated for blood pressure and heart rate measurements. A thoracotomy was performed at the fifth intercostal space, the pericardium was excised, and a silk ligature was placed distal to the left atrial appendage that spanned to the sternal portion of the left ventricle, which included the left anterior descending coronary artery. Occlusion of the area described [area at risk (AAR)] was created by placing ends of the ligature through a polypropylene tube and fixing the snare to the epicardial surface with a hemostat. After 30 min, the hemostat was released to reperfuse the AAR. Following 2 h of reperfusion, the ligature was again occluded, and the AAR was determined by patent-blue negative staining. The heart was then excised, cross-sectioned into 4 to 5 slices, and separated into normal zone and AAR. Pieces were incubated in 1% 2,3,5-triphenyltetrazolium chloride to determine IS. The heart was then incubated overnight in 10% formaldehyde, and infarcted tissue was dissected from the AAR. IS was expressed as a percentage of the AAR (IS/AAR). Leptin (0.12 μg/kg) was administered intravenously as a bolus at 24 and 12 h before ischemia. Amino acids were administered intravenously as a bolus at 24 and 12 hours before ischemia or dissolved in the drinking water and given 48 hours before ischemia.
(§2) For in vitro ischemia/reperfusion studies, hearts were perfused retrogradely, as described previously in Baker, J. et al. (Am. J. Physiol. Heart Circ. Physiol., 2000), the entirety of which is incorporated herein by reference. Briefly, hearts were perfused with modified Krebs-Henseleit buffer (120 mM NaCl, 25 mM NaHCO3, 4.7 mM KCl, 1.2 mM KH2PO4, 1.20 mM MgSO4, 11 mM glucose, and 1.8 mM CaCl2) bubbled with 95% O2-5% CO2 for a 40-minute stabilization period and subjected to 25 minutes of global no-flow ischemia, followed by 180 minutes of reperfusion. Before use, all perfusion fluids were filtered through cellulose acetate membranes with a pore size of 5.0 μm to remove particulate matter. Hearts were kept in temperature-controlled chambers to maintain myocardial temperature at 37° C. A balloon connected to a pressure transducer was inserted into the left ventricle to monitor cardiac function. For some experiments, hearts were stabilized for 25 minutes and then perfused with vancomycin or a mixture of antibiotics for 15 minutes before ischemia/reperfusion. During the initial 40 minute reperfusion period, recovery of mechanical function was measured as left ventricular developed pressure (LVDP) under steady-state conditions and expressed as a percentage of preischemic LVDP. At the end of the 3 hour reperfusion period, hearts were processed and stained with 2,3,5-triphenyltetrazolium chloride dye for IS determination.

[2] = test system: leptin; experiment: Plasma cytokine analysis (leptin); format: in vivo, rat; conditions: Dahl S rats fed 15 ml/rat/d for 14 d, with or without leptin
Method: The concentration of cytokines in blood of rats treated with vancomycin was quantified to identify antibiotic-induced changes. […] Blood samples were kept on ice for 30 min and then centrifuged at 1000 g for 10 min at 4° C. to obtain plasma. Plasma samples were then analyzed to determine the concentration of 23 cytokines (Eve Technologies, Calgary, AB, Canada). Antibiotic was administered continuously via drinking water as described in example 1.

[3] = test system: isolated hearts; experiment: In vitro global ischemia/reperfusion of isolated perfused hearts, infarct size and recovery of LVDP; design: species or system rat; conditions: for effect of inhibitor alone on cardioprotection: inhibitor perfused prior to ischemia/reperfusion, no vancomycin
Method: as §2

[4] = test system: rat heart; conditions: pharmacologic preconditioning (Baker 2007, 2008); cited from earlier work
[5] = test system: Dahl S rats; experiment: In vivo regional myocardial ischemia/reperfusion, infarct size (IS/AAR); design: species or system rat; conditions: vancomycin 15 mg/kg/day for 72 hours, thrombopoietin i.v. 15 minutes prior to ischemia
Excerpt: as §1

## polymyxin B
[1]
  effect on myocardial infarct size: did not induce protection

## leptin: 16-kDa, 167-aa polypeptide synthesized and secreted into the circulation primarily by white adipocytes
[2]
  effect on leptin levels in blood: no effect on leptin levels
[3]; Dahl S rats fed 15 ml/rat/d for 14 d, with or without leptin 0.12 μg/kg
  effect on IS / myocardial infarction: no effect on IS
[3]; leptin 0.12 μg/kg i.v. at 24 and 12 h before ischemia/reperfusion
  effect of leptin in the absence of vancomycin pretreatment: had no effect
[3]; leptin 0.12 μg/kg i.v. at 24 and 12 h before ischemia/reperfusion, probiotic juice-fed rats
  effect on probiotic juice-induced cardioprotection: abolished probiotic juice-induced cardioprotection; also recorded: reversed
[3]; leptin 0.12 μg/kg i.v. at 24 and 12 h before ischemia/reperfusion, vancomycin-treated rats
  effect on decrease in IS and increase in recovery of LVDP conferred by vancomycin: abolished the decrease in IS and increase in recovery of LVDP conferred by vancomycin treatment; also recorded: reversed cardioprotection by vancomycin

## [H]/N=C(/N)N[C@H]1[C@H](O)[C@@H](O)[C@H](O[C@@H]2O[C@@H](C)[C@](O)(C=O)[C@H]2O[C@@H]2O[C@@H](CO)[C@H](O)[C@@H](O)[C@@H]2NC)[C@@H](N/C(N)=N\[H])[C@@H]1O [streptomycin]
[1]
  effect on myocardial infarct size: reduce myocardial infarct size

## CC[C@H](C)[C@H](N)C1=N[C@H](C(=O)N[C@@H](CC(C)C)C(=O)N[C@H](CCC(=O)O)C(=O)N[C@H](C(=O)N[C@H]2CCCCNC(=O)[C@H](CC(N)=O)NC(=O)[C@@H](CC(=O)O)NC(=O)[C@H](Cc3cnc[nH]3)NC(=O)[C@@H](Cc3ccccc3)NC(=O)[C@H]([C@@H](C)CC)NC(=O)[C@@H](CCCN)NC2=O)[C@@H](C)CC)CS1 [bacitracin] ({Ileψ(thiazoline)Cys}-L[dE]IK[dOrn]I[dF]H[dD]N; lactam 4-C)
[1]
  effect on myocardial infarct size: did not induce protection

## erythropoietin: pharmacologic preconditioning agent, cited from Baker 2007 (darbepoetin alfa paper)
[4]
  reduction in IS: 39%

## N#C/C(=C/c1ccc(O)c(O)c1)C(=O)NCc1ccccc1 [AG-490]
[3]; JAK-2 inhibitor 1 μM perfused prior to ischemia/reperfusion, hearts of vancomycin-treated rats
  effect on ability of vancomycin to reduce myocardial necrosis and enhance ventricular function: partially abolished the ability of vancomycin to reduce myocardial necrosis and to enhance ventricular function
[3]
  effect of inhibitor alone on cardioprotection: no effect on cardioprotection

## COc1ccc(Cl)cc1C(=O)NCCc1ccc(S(=O)(=O)NC(=O)NC2CCCCC2)cc1 [Glibenclamide, glibenclamide]
[3]; KATP channel blocker 3 μM perfused prior to ischemia/reperfusion
  effect on ability of vancomycin to reduce myocardial necrosis and enhance ventricular function: abolished the ability of vancomycin to reduce myocardial necrosis and to enhance ventricular function
[3]
  effect of inhibitor alone on cardioprotection: no effect on cardioprotection

## neomycin
[1]
  effect on myocardial infarct size: reduce myocardial infarct size

## COc1cccc(-c2cc(=O)c3ccccc3o2)c1N [PD98059]
[3]
  effect of inhibitor alone on cardioprotection: no effect on cardioprotection
[3]; p42/44 MAPK inhibitor 10 μM perfused prior to ischemia/reperfusion
  effect on ability of vancomycin to reduce myocardial necrosis and enhance ventricular function: abrogated the ability of vancomycin to reduce myocardial necrosis and to enhance ventricular function

## thrombopoietin: agent of classical pharmacologic preconditioning; human thrombopoietin (Baker 2008)
[4]
  reduction in IS: 34%
[5]
  decrease in infarct size: 25%

## C[S+]([O-])c1ccc(-c2nc(-c3ccncc3)c(-c3ccc(F)cc3)[nH]2)cc1 (centres unmarked) [SB 203580]
[3]
  effect of inhibitor alone on cardioprotection: no effect on cardioprotection
[3]; p38 MAPK inhibitor 15 μM perfused prior to ischemia/reperfusion
  effect on ability of vancomycin to reduce myocardial necrosis and enhance ventricular function: abolished the ability of vancomycin to reduce myocardial necrosis and to enhance ventricular function
